Article PMC6409085, “Three odorant-binding proteins are involved in the behavioral response of Sogatella furcifera to rice plant volatiles” (PeerJ, 2019)
Where “and” joins values, the source holds several entries; their conditions need not be identical. Equal entries are not always repeated.

Legend:
SfurOBP1 = SfurOBP1 (Sogatella furcifera, UniProt V5T8N5); experiment: biochemical; assay type: binding; conditions: for Fluorescence competitive binding assay, fluorescence intensity: OBP1, three replicate columns
SfurOBP1, sequence (V5T8N5 entry or part of it): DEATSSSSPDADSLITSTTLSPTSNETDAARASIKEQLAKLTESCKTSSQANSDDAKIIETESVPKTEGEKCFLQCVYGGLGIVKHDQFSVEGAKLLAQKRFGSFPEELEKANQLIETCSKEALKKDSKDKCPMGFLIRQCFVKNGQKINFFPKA
Method in brief: (§1)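 Fluorescence competitive binding used 2.0 µM SfurOBP and 2.0 µM 1-NPN reporter in 50 mM Tris-HCl, pH 7.4, with odorants at 2-20 µM. Fluorescence was read 2 min after adding the odorant (excitation 337 nm, emission 390-490 nm), in triplicate. Ki was calculated from IC50 as IC50/(1 + [1-NPN]/K1-NPN).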

SfurOBP11 = SfurOBP11 (Sogatella furcifera, UniProt V5T6E3); experiment: biochemical; assay type: binding
SfurOBP11, sequence (V5T6E3 entry or part of it): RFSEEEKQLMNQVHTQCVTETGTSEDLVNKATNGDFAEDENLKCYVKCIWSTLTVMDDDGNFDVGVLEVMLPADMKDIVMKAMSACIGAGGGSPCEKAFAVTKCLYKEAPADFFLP
Method in brief: as §1

SfurOBP2 = SfurOBP2 (Sogatella furcifera, UniProt V5T759); experiment: biochemical; assay type: binding
SfurOBP2, sequence (V5T759 entry or part of it): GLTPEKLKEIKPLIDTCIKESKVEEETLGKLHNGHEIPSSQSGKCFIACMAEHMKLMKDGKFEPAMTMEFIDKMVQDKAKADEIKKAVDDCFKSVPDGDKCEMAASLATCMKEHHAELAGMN
Method in brief: as §1

SfurOBP3 = SfurOBP3 (Sogatella furcifera, UniProt V5T818); experiment: biochemical; assay type: binding; conditions: for Fluorescence competitive binding assay, fluorescence intensity: OBP3, three replicate columns
SfurOBP3, sequence (V5T818 entry or part of it): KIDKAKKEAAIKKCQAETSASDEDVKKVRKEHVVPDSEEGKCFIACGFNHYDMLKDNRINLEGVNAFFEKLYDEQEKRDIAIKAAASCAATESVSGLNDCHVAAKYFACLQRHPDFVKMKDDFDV
Method in brief: as §1

S. furcifera adults = experiment: Y-tube olfactometer behavioral trials; assay type: in vivo, Sogatella furcifera; conditions: odorant 50 µL/L vs hexane; adults
Method in brief: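 Single S. furcifera adults (2 days post-emergence, starved 0.5 h) chose between odorant (100 µL of 50 µL/L on filter paper) and hexane control in a glass Y-tube, charcoal-filtered humidified air 300 mL/min per arm, 25 ± 1 °C, 50% RH. Choice scored if insect passed half an arm and stayed >1 min within 10 min; 45 insects per compound, chi-squared test.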

## CCCCCCCCCCCCCC [n-tetradecane]
SfurOBP1; ligand concentration 2 (μM)
  Fluorescence competitive binding assay, fluorescence intensity: 6022 and 9475 and 7407
SfurOBP1; ligand concentration 4 (μM)
  Fluorescence competitive binding assay, fluorescence intensity: 7163 and 8831 and 6832
SfurOBP1; ligand concentration 6 (μM)
  Fluorescence competitive binding assay, fluorescence intensity: 9235 and 7734 and 8738
SfurOBP1; ligand concentration 8 (μM)
  Fluorescence competitive binding assay, fluorescence intensity: 7490 and 9773 and 9402
SfurOBP1; ligand concentration 10 (μM)
  Fluorescence competitive binding assay, fluorescence intensity: 10034 and 9701 and 9801
SfurOBP1; ligand concentration 12 (μM)
  Fluorescence competitive binding assay, fluorescence intensity: 16511 and 14895 and 12657
SfurOBP1; ligand concentration 14 (μM)
  Fluorescence competitive binding assay, fluorescence intensity: 9553 and 12263 and 10210
SfurOBP1; ligand concentration 16 (μM)
  Fluorescence competitive binding assay, fluorescence intensity: 10515 and 10611 and 10617
SfurOBP1; ligand concentration 18 (μM)
  Fluorescence competitive binding assay, fluorescence intensity: 11876 and 13682 and 11119
SfurOBP1; ligand concentration 20 (μM)
  Fluorescence competitive binding assay, fluorescence intensity: 17922 and 11049 and 10258
SfurOBP1; SfurOBP1, protein and 1-NPN both 2.0 µM, competitor 2-20 µM, read-out: IC50
  IC50: > 20 µM
SfurOBP11; SfurOBP11, protein and 1-NPN both 2.0 µM, competitor 2-20 µM, read-out: IC50
  IC50: > 20 µM
SfurOBP11; ligand concentration 2, replicate 1
  Fluorescence intensity, fluorescence competitive binding assay, OBP11: 29943
SfurOBP11; ligand concentration 2, replicate 2
  Fluorescence intensity, fluorescence competitive binding assay, OBP11: 27499
SfurOBP11; ligand concentration 2, replicate 3
  Fluorescence intensity, fluorescence competitive binding assay, OBP11: 28054
SfurOBP11; ligand concentration 4, replicate 1
  Fluorescence intensity, fluorescence competitive binding assay, OBP11: 30256
SfurOBP11; ligand concentration 4, replicate 2
  Fluorescence intensity, fluorescence competitive binding assay, OBP11: 30866
SfurOBP11; ligand concentration 4, replicate 3
  Fluorescence intensity, fluorescence competitive binding assay, OBP11: 29645
SfurOBP11; ligand concentration 6, replicate 1
  Fluorescence intensity, fluorescence competitive binding assay, OBP11: 26462
SfurOBP11; ligand concentration 6, replicate 2
  Fluorescence intensity, fluorescence competitive binding assay, OBP11: 29047
SfurOBP11; ligand concentration 6, replicate 3
  Fluorescence intensity, fluorescence competitive binding assay, OBP11: 31220
SfurOBP11; ligand concentration 8, replicate 1
  Fluorescence intensity, fluorescence competitive binding assay, OBP11: 26278
SfurOBP11; ligand concentration 8, replicate 2
  Fluorescence intensity, fluorescence competitive binding assay, OBP11: 28884
SfurOBP11; ligand concentration 8, replicate 3
  Fluorescence intensity, fluorescence competitive binding assay, OBP11: 31318
SfurOBP11; ligand concentration 10, replicate 1
  Fluorescence intensity, fluorescence competitive binding assay, OBP11: 27323
SfurOBP11; ligand concentration 10, replicate 2
  Fluorescence intensity, fluorescence competitive binding assay, OBP11: 28751
SfurOBP11; ligand concentration 10, replicate 3
  Fluorescence intensity, fluorescence competitive binding assay, OBP11: 30741
SfurOBP11; ligand concentration 12, replicate 1
  Fluorescence intensity, fluorescence competitive binding assay, OBP11: 30511
SfurOBP11; ligand concentration 12, replicate 2
  Fluorescence intensity, fluorescence competitive binding assay, OBP11: 30637
SfurOBP11; ligand concentration 12, replicate 3
  Fluorescence intensity, fluorescence competitive binding assay, OBP11: 30384
SfurOBP11; ligand concentration 14, replicate 1
  Fluorescence intensity, fluorescence competitive binding assay, OBP11: 29980
SfurOBP11; ligand concentration 14, replicate 2
  Fluorescence intensity, fluorescence competitive binding assay, OBP11: 30187
SfurOBP11; ligand concentration 14, replicate 3
  Fluorescence intensity, fluorescence competitive binding assay, OBP11: 31537
SfurOBP11; ligand concentration 16, replicate 1
  Fluorescence intensity, fluorescence competitive binding assay, OBP11: 25150
SfurOBP11; ligand concentration 16, replicate 2
  Fluorescence intensity, fluorescence competitive binding assay, OBP11: 28430
SfurOBP11; ligand concentration 16, replicate 3
  Fluorescence intensity, fluorescence competitive binding assay, OBP11: 29261
SfurOBP11; ligand concentration 18, replicate 1
  Fluorescence intensity, fluorescence competitive binding assay, OBP11: 33050
SfurOBP11; ligand concentration 18, replicate 2
  Fluorescence intensity, fluorescence competitive binding assay, OBP11: 34724
SfurOBP11; ligand concentration 18, replicate 3
  Fluorescence intensity, fluorescence competitive binding assay, OBP11: 33545
SfurOBP11; ligand concentration 20, replicate 1
  Fluorescence intensity, fluorescence competitive binding assay, OBP11: 33953
SfurOBP11; ligand concentration 20, replicate 2
  Fluorescence intensity, fluorescence competitive binding assay, OBP11: 35669
SfurOBP11; ligand concentration 20, replicate 3
  Fluorescence intensity, fluorescence competitive binding assay, OBP11: 33542
SfurOBP2; SfurOBP2, protein and 1-NPN both 2.0 µM, competitor 2-20 µM, read-out: IC50
  IC50: > 20 µM
SfurOBP2; ligand concentration 2 (unit not given), replicate column 1 of 3
  Fluorescence competitive binding assay, OBP2 (raw fluorescence reading): 17681
SfurOBP2; ligand concentration 2 (unit not given), replicate column 2 of 3
  Fluorescence competitive binding assay, OBP2 (raw fluorescence reading): 15844
SfurOBP2; ligand concentration 2 (unit not given), replicate column 3 of 3
  Fluorescence competitive binding assay, OBP2 (raw fluorescence reading): 16950
SfurOBP2; ligand concentration 4 (unit not given), replicate column 1 of 3
  Fluorescence competitive binding assay, OBP2 (raw fluorescence reading): 17519
SfurOBP2; ligand concentration 4 (unit not given), replicate column 2 of 3
  Fluorescence competitive binding assay, OBP2 (raw fluorescence reading): 20288
SfurOBP2; ligand concentration 4 (unit not given), replicate column 3 of 3
  Fluorescence competitive binding assay, OBP2 (raw fluorescence reading): 20488
SfurOBP2; ligand concentration 6 (unit not given), replicate column 1 of 3
  Fluorescence competitive binding assay, OBP2 (raw fluorescence reading): 19784
SfurOBP2; ligand concentration 6 (unit not given), replicate column 2 of 3
  Fluorescence competitive binding assay, OBP2 (raw fluorescence reading): 21064
SfurOBP2; ligand concentration 6 (unit not given), replicate column 3 of 3
  Fluorescence competitive binding assay, OBP2 (raw fluorescence reading): 19193
SfurOBP2; ligand concentration 8 (unit not given), replicate column 1 of 3
  Fluorescence competitive binding assay, OBP2 (raw fluorescence reading): 20311
SfurOBP2; ligand concentration 8 (unit not given), replicate column 2 of 3
  Fluorescence competitive binding assay, OBP2 (raw fluorescence reading): 19912
SfurOBP2; ligand concentration 8 (unit not given), replicate column 3 of 3
  Fluorescence competitive binding assay, OBP2 (raw fluorescence reading): 20694
SfurOBP2; ligand concentration 10 (unit not given), replicate column 1 of 3
  Fluorescence competitive binding assay, OBP2 (raw fluorescence reading): 21153
SfurOBP2; ligand concentration 10 (unit not given), replicate column 2 of 3
  Fluorescence competitive binding assay, OBP2 (raw fluorescence reading): 20155
SfurOBP2; ligand concentration 10 (unit not given), replicate column 3 of 3
  Fluorescence competitive binding assay, OBP2 (raw fluorescence reading): 21164
SfurOBP2; ligand concentration 12 (unit not given), replicate column 1 of 3
  Fluorescence competitive binding assay, OBP2 (raw fluorescence reading): 17882
SfurOBP2; ligand concentration 12 (unit not given), replicate column 2 of 3
  Fluorescence competitive binding assay, OBP2 (raw fluorescence reading): 20189
SfurOBP2; ligand concentration 12 (unit not given), replicate column 3 of 3
  Fluorescence competitive binding assay, OBP2 (raw fluorescence reading): 20719
SfurOBP2; ligand concentration 14 (unit not given), replicate column 1 of 3
  Fluorescence competitive binding assay, OBP2 (raw fluorescence reading): 19553
SfurOBP2; ligand concentration 14 (unit not given), replicate column 2 of 3
  Fluorescence competitive binding assay, OBP2 (raw fluorescence reading): 20680
SfurOBP2; ligand concentration 14 (unit not given), replicate column 3 of 3
  Fluorescence competitive binding assay, OBP2 (raw fluorescence reading): 20531
SfurOBP2; ligand concentration 16 (unit not given), replicate column 1 of 3
  Fluorescence competitive binding assay, OBP2 (raw fluorescence reading): 20438
SfurOBP2; ligand concentration 16 (unit not given), replicate column 2 of 3
  Fluorescence competitive binding assay, OBP2 (raw fluorescence reading): 19246
SfurOBP2; ligand concentration 16 (unit not given), replicate column 3 of 3
  Fluorescence competitive binding assay, OBP2 (raw fluorescence reading): 20069
SfurOBP2; ligand concentration 18 (unit not given), replicate column 1 of 3
  Fluorescence competitive binding assay, OBP2 (raw fluorescence reading): 24630
SfurOBP2; ligand concentration 18 (unit not given), replicate column 2 of 3
  Fluorescence competitive binding assay, OBP2 (raw fluorescence reading): 24806
SfurOBP2; ligand concentration 18 (unit not given), replicate column 3 of 3
  Fluorescence competitive binding assay, OBP2 (raw fluorescence reading): 23381
SfurOBP2; ligand concentration 20 (unit not given), replicate column 1 of 3
  Fluorescence competitive binding assay, OBP2 (raw fluorescence reading): 26164
SfurOBP2; ligand concentration 20 (unit not given), replicate column 2 of 3
  Fluorescence competitive binding assay, OBP2 (raw fluorescence reading): 20955
SfurOBP2; ligand concentration 20 (unit not given), replicate column 3 of 3
  Fluorescence competitive binding assay, OBP2 (raw fluorescence reading): 19728
SfurOBP3; ligand concentration 2
  Fluorescence competitive binding assay, fluorescence intensity: 83183 and 87404 and 88774
SfurOBP3; ligand concentration 4
  Fluorescence competitive binding assay, fluorescence intensity: 91510 and 89708 and 93194
SfurOBP3; ligand concentration 6
  Fluorescence competitive binding assay, fluorescence intensity: 97532 and 94447 and 95269
SfurOBP3; ligand concentration 8
  Fluorescence competitive binding assay, fluorescence intensity: 93074 and 89520 and 89172
SfurOBP3; ligand concentration 10
  Fluorescence competitive binding assay, fluorescence intensity: 92952 and 88800 and 85833
SfurOBP3; ligand concentration 12
  Fluorescence competitive binding assay, fluorescence intensity: 87947 and 90919 and 89332
SfurOBP3; ligand concentration 14
  Fluorescence competitive binding assay, fluorescence intensity: 86216 and 85989 and 89098
SfurOBP3; ligand concentration 16
  Fluorescence competitive binding assay, fluorescence intensity: 77694 and 82013 and 80619
SfurOBP3; ligand concentration 18
  Fluorescence competitive binding assay, fluorescence intensity: 91776 and 100406 and 90755
SfurOBP3; ligand concentration 20
  Fluorescence competitive binding assay, fluorescence intensity: 89755 and 85247 and 85349
SfurOBP3; SfurOBP3, protein and 1-NPN both 2.0 µM, competitor 2-20 µM, read-out: IC50
  IC50: > 20 µM
S. furcifera adults
  number of insects choosing hexane arm: 13
  number of insects choosing volatilies arm: 14
  number of insects failed (no choice): 13
